pIC50: −log10 of the molar value.
Tests used:
MDA-MB-231 = experiment: Growth inhibition of human MDA-MB-231 cells after 72 hrs by MTT assay; assay type: functional, cell-based; settings: MDA-MB-231, 72 h
[1] = Cytotoxicity against human OVCAR8 cells assessed as cell growth at 10 uM after 48 hrs by SRB assay relative to control; assay type: functional; settings: OVCAR-8, 48 h, read-out: Activity
U-251 = experiment: Cytotoxicity against human U251 cells assessed as cell growth at 10 uM after 48 hrs by SRB assay relative to control; assay type: functional; settings: U-251, 48 h, read-out: Activity
MCF7 = experiment: Growth inhibition of human MCF7 cells after 72 hrs by MTT assay; assay type: functional, cell-based; settings: MCF7, 72 h
HL-60(TB) = experiment: Cytotoxicity against human HL-60(TB) cells assessed as cell growth at 10 uM after 48 hrs by SRB assay relative to control; assay type: functional; settings: HL-60, 48 h, read-out: Activity
[2] = Cytotoxicity against human NCI-ADR-RES cells assessed as cell growth at 10 uM after 48 hrs by SRB assay relative to control; assay type: functional; settings: read-out: Activity
[3] = Cytotoxicity against human UO31 cells assessed as cell growth at 10 uM after 48 hrs by SRB assay relative to control; assay type: functional; settings: UO-31, 48 h, read-out: Activity
MDA-MB-468 = experiment: Cytotoxicity against human MDA-MB-468 cells assessed as cell growth at 10 uM after 48 hrs by SRB assay relative to control; assay type: functional; settings: MDA-MB-468, 48 h, read-out: Activity
[4] = Cytotoxicity against human Hs 578T cells assessed as cell growth at 10 uM after 48 hrs by SRB assay relative to control; assay type: functional; settings: read-out: Activity
NCI-H522 = experiment: Cytotoxicity against human NCI-H522 cells assessed as cell growth at 10 uM after 48 hrs by SRB assay relative to control; assay type: functional; settings: NCI-H522, 48 h, read-out: Activity
SF-268 = experiment: Cytotoxicity against human SF268 cells assessed as cell growth at 10 uM after 48 hrs by SRB assay relative to control; assay type: functional; settings: SF-268, 48 h, read-out: Activity
A498 [5] = experiment: Cytotoxicity against human A498 cells assessed as cell growth at 10 uM after 48 hrs by SRB assay relative to control; assay type: functional; settings: A498, 48 h, read-out: Activity
SR = experiment: Cytotoxicity against human SR cells assessed as cell growth at 10 uM after 48 hrs by SRB assay relative to control; assay type: functional; settings: read-out: Activity
SK-MEL-5 = experiment: Cytotoxicity against human SK-MEL-5 cells assessed as cell growth at 10 uM after 48 hrs by SRB assay relative to control; assay type: functional; settings: SK-MEL-5, 48 h, read-out: Activity
NCI-H226 = experiment: Cytotoxicity against human NCI-H226 cells assessed as cell growth at 10 uM after 48 hrs by SRB assay relative to control; assay type: functional; settings: NCI-H226, 48 h, read-out: Activity
SK-MEL-2 [6] = experiment: Cytotoxicity against human SK-MEL-2 cells assessed as cell growth at 10 uM after 48 hrs by SRB assay relative to control; assay type: functional; settings: SK-MEL-2, 48 h, read-out: Activity
MOLT-4 = experiment: Cytotoxicity against human MOLT4 cells assessed as cell growth at 10 uM after 48 hrs by SRB assay relative to control; assay type: functional; settings: MOLT-4, 48 h, read-out: Activity
BT-549 = experiment: Cytotoxicity against human BT549 cells assessed as cell growth at 10 uM after 48 hrs by SRB assay relative to control; assay type: functional; settings: BT-549, 48 h, read-out: Activity
HOP-92 = experiment: Cytotoxicity against human HOP92 cells assessed as cell growth at 10 uM after 48 hrs by SRB assay relative to control; assay type: functional; settings: HOP-92, 48 h, read-out: Activity
COLO 205 = experiment: Cytotoxicity against human COLO205 cells assessed as cell growth at 10 uM after 48 hrs by SRB assay relative to control; assay type: functional; settings: COLO 205, 48 h, read-out: Activity
Malme-3M = experiment: Cytotoxicity against human MALME-3M cells assessed as cell growth at 10 uM after 48 hrs by SRB assay relative to control; assay type: functional; settings: read-out: Activity
[7] = Cytotoxicity against human SKOV3 cells assessed as cell growth at 10 uM after 48 hrs by SRB assay relative to control; assay type: functional; settings: SK-OV-3, 48 h, read-out: Activity
RXF 393 = experiment: Cytotoxicity against human RXF393 cells assessed as cell growth at 10 uM after 48 hrs by SRB assay relative to control; assay type: functional; settings: RXF 393, 48 h, read-out: Activity
[8] = Cytotoxicity against human OVCAR4 cells assessed as cell growth at 10 uM after 48 hrs by SRB assay relative to control; assay type: functional; settings: OVCAR-4, 48 h, read-out: Activity
SW-620 = experiment: Cytotoxicity against human SW620 cells assessed as cell growth at 10 uM after 48 hrs by SRB assay relative to control; assay type: functional; settings: SW-620, 48 h, read-out: Activity
DU-145 = experiment: Cytotoxicity against human DU145 cells assessed as cell growth at 10 uM after 48 hrs by SRB assay relative to control; assay type: functional; settings: DU-145, 48 h, read-out: Activity
[9] = Cytotoxicity against human OVCAR5 cells assessed as cell growth at 10 uM after 48 hrs by SRB assay relative to control; assay type: functional; settings: OVCAR-5, 48 h, read-out: Activity
CAKI-1 = experiment: Cytotoxicity against human Caki1 cells assessed as cell growth at 10 uM after 48 hrs by SRB assay relative to control; assay type: functional; settings: CAKI-1, 48 h, read-out: Activity
SK-MEL-2 [10] = experiment: Cytotoxicity against human SK-MEL-2 cells after 48 hrs by SRB assay; assay type: functional; settings: SK-MEL-2, 48 h
TK-10 = experiment: Cytotoxicity against human TK10 cells assessed as cell growth at 10^-6 M after 48 hrs by SRB assay relative to control; assay type: functional; settings: TK-10, 48 h, read-out: Activity
[11] = Cytotoxicity against human HCT15 cells assessed as cell growth at 10^-6 M after 48 hrs by SRB assay relative to control; assay type: functional; settings: HCT-15, 48 h, read-out: Activity
HOP-62 = experiment: Cytotoxicity against human HOP62 cells assessed as cell growth at 10^-4 M after 48 hrs by SRB assay relative to control; assay type: functional; settings: HOP-62, 48 h, read-out: Activity
A498 [12] = experiment: Cytotoxicity against human A498 cells assessed as cell growth at 10^-8 M after 48 hrs by SRB assay relative to control; assay type: functional; settings: A498, 48 h, read-out: Activity
ACHN [13] = experiment: Cytotoxicity against human ACHN cells assessed as cell growth at 10^-7 M after 48 hrs by SRB assay relative to control; assay type: functional; settings: read-out: Activity
KM12 = experiment: Cytotoxicity against human KM12 cells assessed as cell growth at 10^-8 M after 48 hrs by SRB assay relative to control; assay type: functional; settings: KM12, 48 h, read-out: Activity
ACHN [14] = experiment: Cytotoxicity against human ACHN cells after 48 hrs by SRB assay; assay type: functional

Row | Compound | pIC50 (MDA-MB-231) | growth at 10 µM [1] [%] | growth at 10 µM (U-251) [%] | pIC50 (MCF7) | growth at 10 µM (HL-60(TB)) [%] | growth at 10 µM [2] [%] | growth at 10 µM [3] [%] | growth at 10 µM (MDA-MB-468) [%] | growth at 10 µM [4] [%] | growth at 10 µM (A498 [5]) [%] | growth at 10 µM (SK-MEL-5) [%] | growth at 10 µM (NCI-H226) [%] | growth at 10 µM (SK-MEL-2 [6]) [%] | growth at 10 µM (MOLT-4) [%] | growth at 10 µM (COLO 205) [%] | growth at 10 µM (Malme-3M) [%] | growth at 10 µM [7] [%] | growth at 10 µM (RXF 393) [%] | growth at 10 µM [8] [%] | growth at 10 µM (SW-620) [%] | other results
1 | CC(C)=CCC[C@H](C)c1ccc(C)c2c1OCN(CCCCCO)C2 | 5.27 | 90.1 | 83.8 | 5.16 | 51.7 | 76 | 57 | 90 | 81.2 | 75.3 | 91.7 | 98.4 | 92.7 | 66.5 | 90 | 93.7 | 88.8 | 90.1 | 95.5 | 94.9 | growth at 10 µM (NCI-H522): -1.75%; growth at 10 µM (SF-268): 97.5%; growth at 10 µM (SR): 66.6%; growth at 10 µM (BT-549): 72.1%; growth at 10 µM (HOP-92): 27.7%; growth at 10 µM (DU-145): 109%; growth at 10 µM [9]: 87.4%; growth at 10 µM (CAKI-1): 78.1%
2 | CC(C)=CCC[C@H](C)c1ccc(C)c(CNCC2CCNCC2)c1O | 4.74 | 85 | 57 | < 4.70 | 99 | 84 | 64.3 | 70 | 71 | 65 | 73 | 72 | 102 | 77 | -59 | 88 | 83 | 65 | 88 | 86 | GI50 (SK-MEL-2 [10]): 5.03 µM; LC50 (SK-MEL-2 [10]): 19.2 µM; TGI (SK-MEL-2 [10]): 9.83 µM; growth at 1 µM (TK-10): 99%; growth at 10 µM (NCI-H522): 86.8%; growth at 10 µM (SF-268): 87.7%; growth at 10 µM (SR): 0.23%; growth at 1 µM [11]: 98%; growth at 100 µM (HOP-62): -74%; growth at 0.01 µM (A498 [12]): 80%; growth at 0.1 µM (ACHN [13]): 94%; growth at 0.01 µM (KM12): 97%; growth at 10 µM (DU-145): 91.2%; growth at 10 µM [9]: 82%; GI50 (ACHN [14]): 4.68 µM; LC50 (concentration killing 50% of cells) (ACHN [14]): > 25 µM; TGI (ACHN [14]): 12.7 µM; growth at 10 µM (CAKI-1): 71.8%
3 | COc1ccc(CCN2COc3c([C@@H](C)CCC=C(C)C)ccc(C)c3C2)cc1OC | 4.79 | 24 | -47 | 5.17 | 18 | -2 | 10 | -70 | 21 | 7 | -96 | 47 | -68 | 23 | -99 | -78 | 59 | -35 | 11 | -59 | GI50 (SK-MEL-2 [10]): 1.88 µM; LC50 (SK-MEL-2 [10]): 7.79 µM; TGI (SK-MEL-2 [10]): 3.82 µM; growth at 1 µM (TK-10): 89%; growth at 10 µM (NCI-H522): 64.7%; growth at 1 µM [11]: 90%; growth at 10 µM (BT-549): 87.9%; growth at 100 µM (HOP-62): 100%; growth at 10 µM (HOP-92): -1.29%; growth at 0.01 µM (A498 [12]): 67%; growth at 0.1 µM (ACHN [13]): 94%; growth at 0.01 µM (KM12): 98%; growth at 10 µM [9]: 47%; GI50 (ACHN [14]): 6.11 µM; LC50 (concentration killing 50% of cells) (ACHN [14]): 48.1 µM; TGI (ACHN [14]): 20.2 µM; growth at 10 µM (CAKI-1): 8%
4 | CC(C)=CCC[C@H](C)c1ccc(C)c2c1OCN(CC1CCNCC1)C2 | 4.83 | 75.3 | -13 | 5.09 | 13.8 | 83.5 | 60.5 | 7.48 | 64.3 | 64 | 30 | 94 | 95 | 34.1 | 75.9 | 90 | 87 | 55.2 | 86 | 28 | GI50 (SK-MEL-2 [10]): 18.2 µM; LC50 (SK-MEL-2 [10]): 69.2 µM; TGI (SK-MEL-2 [10]): 35.5 µM; growth at 1 µM (TK-10): 118%; growth at 10 µM (SF-268): 93%; growth at 10 µM (SR): -8.52%; growth at 1 µM [11]: 95%; growth at 10 µM (BT-549): 55.8%; growth at 100 µM (HOP-62): -94%; growth at 10 µM (HOP-92): 12.3%; growth at 0.01 µM (A498 [12]): 78%; growth at 0.1 µM (ACHN [13]): 105%; growth at 0.01 µM (KM12): 99%; growth at 10 µM (DU-145): 93.9%; growth at 10 µM [9]: 76%; GI50 (ACHN [14]): 15.3 µM; LC50 (concentration killing 50% of cells) (ACHN [14]): 58.9 µM; TGI (ACHN [14]): 30 µM; growth at 10 µM (CAKI-1): 80.2%

From ChEMBL document CHEMBL3390836, “Mannich- and LedererManasse-based analogues of the natural product S-(+)-curcuphenol as cancer proliferation and migration inhibitors” (Medchemcomm, 2012)
